Data published in patent EP0981362B1, “USE OF GLP-2 AGONISTS ENHANCING F[…] THE UPPER GASTROINTESTINAL TRACT” (1149336 ONTARIO INC., priority 1997, dated 1998).

Tested on: female CD1 mice
Assay: Indomethacin-induced mortality in mice (model dose)
Type: in vivo
Conditions: indomethacin 7 mg/kg s.c. bid for two days following overnight fasting; 7-8 week old female CD1 mice; saline-treated control animals
Experimental: Indomethacin(1-[p-chlorobenzoyl]-5-methoxy-2-methylindole-3-acetic acic) (Sigma Chemical Co., St Louis MO, lot 74H1212), stock solution was prepared and aliquoted 1 hr before the first injection. The mice were weighed, and then fasted overnight, and given food one hour prior to the first indomethacin injection. Mice were not fasted for the second indomethacin injection. Indomethacin (14.5 mg) was weighed out using a Mettler AE166 scale and dissolved in 1 mL anhydrous ethyl alcohol. The solution was warmed at 37° C for 5 minutes and thoroughly vortexed every minute until fully dissolved. 998.1 uL of stock indomethacin solution was diluted in 41 ml 5% NaHCO3 pH 7.3. […] Indomethacin used in the second injection was stored at -20° C overnight and allowed to thaw at room temperature prior to injection. Mice were injected at the same time (10:00 AM) on both days approximately 1 hr after receiving h[Gly^2]-GLP-2. Animals not receiving indomethacin were administered vehicle alone (250 µl anhydrous ethyl alcohol in 10.5 mL NaHCO3 pH 7.3 - a final injection volume of 0.5 ml was given daily over 2 days). Animals were sacrificed in a CO2 chamber 14 days following the administration of either PBS or h[Gly^2]-GLP-2.
Pilot experiments were performed to determine an indomethacin dose that reproducibly produced ∼ 50% mortality in mice. […]

`COc1ccc2c(c1)c(CC(=O)O)c(C)n2C(=O)c1ccc(Cl)cc1` [indomethacin, 1-[p-chlorobenzoyl]-5-methoxy-2-methylindole-3-acetic acic] gave a mortality of 50%.
